According to patent US8188059B2, “Compounds and methods for modulating expression of GCGR” (Isis Pharmaceuticals, Inc., priority 2006, dated 2012):
Strand notation (5' to 3'): a small letter for the sugar, then the base; units joined by * are phosphorothioate-linked, units joined directly phosphodiester-linked; [ ] holds rarer units or linkages, { } end groups; capitals alone tell only the bases. e = 2'-O-(2-methoxyethyl) (MOE); [5mC] = 5-methylcytosine; d = 2'-deoxy (DNA)

System: GCGR mRNA
Assay: GCGR mRNA levels in liver and estimated ED50, C57/BL6 mice, single i.p. dose (Example 5, Tables 44, 45)
Assay type: in vivo, mouse
Description: Eight-week old male C57/BL6 mice (Jackson Laboratory, Bar Harbor, Me.) were administered a single dose of GCGR antisense compound by intraperitonel (i.p.) injection at a concentration of 10, 3.2, 1, and 0.32 μmol·kg. Each dose group consisted of four animals. Shown in Table 43 are the sequences, motifs and conjugates of the GCGR antisense compounds used in this study. Bolded residues indicate 2′-O-methoxyethyl (2′-MOE) modifications and the italicized residues indicate methyleneoxy (4′-CH2—O-2′) BNA modifications. All antisense compounds comprise phosphorothioate internucleoside linkages throughout and each cytosine is replaced with 5-methylcytosine. GCGR antisense compounds target published GCGR nucleic acids, including Genbank Accession No. BC031885.1 (SEQ ID NO: 7).
To determine whether the phenotypic changes shown above correlated with a decrease in GCGR mRNA, treated animals were evaluated for levels of target mRNA in liver by RT, real time PCR according to methods described herein. Table 44 show results from direct comparisons of the antisense compounds targeting GCGR nucleic acid for their effect on target expression. Results are expressed as percent of saline control.

## 148364 (antisense eT*eG*e[5mC]*eA*e[5mC]*dT*dT*dT*dG*dT*dG*dG*dT*dA*d[5mC]*e[5mC]*eA*eA*eG*eG) [compound 148364]
0.32 μmol/kg single i.p.
  GCGR mRNA levels in liver: 105% of saline control
1 μmol/kg single i.p.
  GCGR mRNA levels in liver: 106% of saline control
3.2 μmol/kg single i.p.
  GCGR mRNA levels in liver: 73% of saline control
10 μmol/kg single i.p.
  GCGR mRNA levels in liver: 38% of saline control
